Results: article PMC7062083, “Metabolite identification, tissue distribution, excretion and preclinical pharmacokinetic studies of ET-26-HCl, a new analogue of etomidate” (Royal Society Open Science, 2020)
Like-named read-outs stand apart in the source and are kept apart here.

Columns and labels:
[1] = Metabolic stability in monkey liver microsomes; format: in vitro ADME
Method: Samples were analysed by LC–MS/MS as mentioned above.2.1 CLint, in vitro=0.693/t1/2/Cprotein, 2.2 CLint, in vivo=CLint, in vitro×Houston×LW/1000 2.3 andCLhep in vivo=HBF × fu ×CLint, in vivo/HBF + fu ×CLint, in vivo. Where Cprotein is microsomal protein concentration (mg ml^−1); Houston is Houston factor (45 mg of microsomal protein g^−1 liver); LW is liver weight (g) (per species); HBF is hepatic blood flow (ml min^−1) (per species); fu (two places) and later is unbound fraction (fu = 1 − %protein binding).

[2] = Stability in beagle plasma (LC-MS/MS); format: in vitro ADME
Method: (§1) Concentrations of ET-26-HCl and ET-26-acid in biological samples were determined by liquid chromatography–tandem mass spectrometry (LC–MS/MS) after deproteinization with methanol. The bioanalytical method for simultaneous quantification of ET-26-HCl and ET-26-acid in the different matrix was fully validated according to FDA guidelines (electronic supplementary material, figure S1 and tables S1 and S2) in our previous study. Briefly, a 100 µl sample (plasma, tissue homogenate, bile, urine and faeces suspension) were spiked with 20 µl of IS solution and vortexed for 30 s. The mixture was then processed for protein precipitation with 300 µl methanol, followed by centrifugation at 12 000 r.p.m. for 5 min. Supernatant was collected and analysed by LC–MS/MS system.

[3] = Plasma protein binding, equilibrium dialysis, mouse plasma; format: in vitro ADME
Method: (§2) The PPB of ET-26-HCl in mouse, rat, beagle dog, monkey and human plasma was determined according to the equilibrium dialysis method. In brief, 1 ml of control plasma samples in dialysis bag was incubated in 10 ml of PBS containing ET-26-HCl at a final concentration of 2.21 × 10^2, 1.77 × 10^3 and 3.54 × 10^3 […] at 4°C with an equilibrium time of 9 h to reach the mass balance binding condition. A 100 µl aliquots of the PBS buffer and the plasma in the dialysis bag were transferred to 2 ml EP tubes and diluted to 995 µl with PBS and analysed on the LC–MS/MS system. The PPB (fppb) was calculated as follows: fppb=Din−Dout/Din×100% , where Din is the plasma drug concentration in the dialysis bag and Dout is the dialysate drug concentration.

[4] = rats, i.v., cited from earlier work
human plasma = test: Plasma protein binding, equilibrium dialysis, human plasma; format: in vitro ADME; details: overall over the three concentrations
Method: as §2

[5] = as above; format: in vitro ADME; details: human, plasma
Method: as §2

[6] = Excretion (urine, faeces, bile) in Sprague Dawley rats; format: in vivo
Method: as §1
SD rats (4 male and 4 female) received 4.2 mg kg^−1 of ET-26-HCl intravenously and were housed in metabolic cages. Urine and faeces from the treated rats were collected between 0–6, 6–12, 12–24, 24–30, 30–36 and 36–48 h post-dosing. Urine volume and faeces weight were measured and recorded.
Bile fistulas of SD rats (four male and four female) were cannulated with polyethylene tube (Instech Laboratories, Inc., USA) and bile was collected at the following time-points: 0–3, 3–6, 6–9, 9–12 and 12–24 h post-dosing. The volume of the collected bile was measured and stored at −80°C until analysis.

[7] = set-up: method as in earlier work; details: rat; ref results of the drug effect in the early stage of the cooperation laboratory; cited from earlier work
[8] = measured concentration 654 ng ml^−1
[9] = measured concentration 2.62 × 10^3 ng ml^−1, read-out: protein binding (converted)
[10] = measured concentration 5.23 × 10^3 ng ml^−1, read-out: protein binding (converted)
[11] = overall over the three concentrations, read-out: plasma protein binding rate (converted)
[12] = i.v. ET-26-HCl 4.2 mg kg^−1, collected to 48 h

COCCOC(=O)c1cncn1[C@H](C)c1ccccc1.Cl [ET-26-HCl, (R)-2-methoxyethyl1-(1-phenylethyl)-1H-imidazole-5-carboxylate hydrochloride]
CLint, in vitro ([1]; monkey liver microsomes): 2216 ml min g^−1 protein
metabolic stability (in words) ([1]; monkey liver microsomes): not metabolically stable
time to complete disappearance of ET-26-HCl ([1]; monkey liver microsomes): ≤ 15 min
CLint, in vitro ([1]; monkey liver microsomes, Cprotein 0.33 mg ml^−1): 2216 ± 43.0 ml min^−1 g^−1 protein
extrapolated CLhep in vivo ([1]; monkey, from liver microsomes): 168 ± 0.05 mL/min
Measured concentration (Mean ± SD) ([2]; 4◦C for 3 h, nominal 44.92 ng/mL): 48.79 ± 3.275 ng/mL
Measured concentration (Mean ± SD) ([2]; 4◦C for 3 h, nominal 3743 ng/mL): 3977 ± 294.1 ng/mL
Measured concentration (Mean ± SD) ([2]; Freeze and Thaw Cycle (3), nominal 44.92 ng/mL): 47.75 ± 3.427 ng/mL
Measured concentration (Mean ± SD) ([2]; Freeze and Thaw Cycle (3), nominal 3743 ng/mL): 3722 ± 240.3 ng/mL
Measured concentration (Mean ± SD) ([2]; Room temperature 3 h, nominal 44.92 ng/mL): 47.91 ± 4.952 ng/mL
Measured concentration (Mean ± SD) ([2]; Room temperature 3 h, nominal 3743 ng/mL): 3599 ± 136.1 ng/mL
Measured concentration (Mean ± SD) ([2]; –80 ◦C for 30 days, nominal 44.92 ng/mL): 44.67 ± 4.795 ng/mL
Measured concentration (Mean ± SD) ([2]; –80 ◦C for 30 days, nominal 3743 ng/mL): 3989 ± 229.1 ng/mL
fraction unbound at 9 h, 654 ng ml^−1 [3, 8]: 0.0453
fraction unbound at 9 h [3, 9]: 0.0539
fraction unbound at 9 h [3, 10]: 0.0702
fraction unbound at 9 h [3, 11]: 0.0565 ± 0.000689
AUC0-t ([4]; 2.1 mg/kg): 28.47 ± 3.41 mg·min/L
CL ([4]; 2.1 mg/kg): 58 ± 11 mL/min/kg
Cmax ([4]; 2.1 mg/kg): 1820 ± 200 ng/mL
Vd ([4]; 2.1 mg/kg): 5.37 ± 0.72 L/kg
t1/2 ([4]; 2.1 mg/kg): 65.4 ± 12.6 min
λ ([4]; 2.1 mg/kg): 0.66 ± 0.24 h⁻¹
AUC0-t ([4]; 4.2 mg/kg): 41.70 ± 3.61 mg·min/L
CL ([4]; 4.2 mg/kg): 92 ± 8 mL/min/kg
Cmax ([4]; 4.2 mg/kg): 3310 ± 210 ng/mL
Vd ([4]; 4.2 mg/kg): 5.24 ± 1.33 L/kg
t1/2 ([4]; 4.2 mg/kg): 39.6 ± 10.2 min
λ ([4]; 4.2 mg/kg): 1.20 ± 0.36 h⁻¹
AUC0-t ([4]; 8.4 mg/kg): 110.92 ± 9.04 mg·min/L
CL ([4]; 8.4 mg/kg): 64 ± 5 mL/min/kg
Cmax ([4]; 8.4 mg/kg): 7010 ± 360 ng/mL
Vd ([4]; 8.4 mg/kg): 4.67 ± 0.99 L/kg
t1/2 ([4]; 8.4 mg/kg): 51 ± 8.4 min
λ ([4]; 8.4 mg/kg): 0.78 ± 0.12 h⁻¹
time until cleared after intravenous administration [4]: ≤ 4 h
plasma protein binding rate (human plasma): 68%
fraction unbound at 9 h, 654 ng ml^−1 [5, 8]: 0.372
fraction unbound at 9 h [5, 9]: 0.318
fraction unbound at 9 h [5, 10]: 0.261
fraction unbound at 9 h [5, 11]: 0.317
accumulative excretion through bile ([6]; i.v. ET-26-HCl 4.2 mg kg^−1, bile collected to 24 h): 0.619%
accumulative excretion through faeces [6, 12]: 0.076%
accumulative excretion through urine [6, 12]: 11.97%
ED50 [7]: 2.1 mg/kg
